Measured values published in patent publication US20090155241A1, “Prophylactic/therapeutic agent for cancer” (JAPANESE FOUNDATION FOR CANCER RESEARCH, priority 2005, published 2009).

Assays:
[1] = tested on: SF268/ACS5 and SF268/mock cells; assay: Cell viability after anticancer drug treatment, SF268/mock and SF268/ACS5; type: cell-based, human; conditions: 48 hours; etoposide 1, 3 or 10 µg/ml, 5-fluorouracil 30, 100 or 300 µg/ml; FIG. 6A
Experimental: Changes of anticancer drug sensitivity in cancer cells by expression of ACS5 were examined. After 1, 3 or 10 µg/ml of etoposide or 30, 100 or 300 µg/ml of 5-fluorouracil was added to SF268/ACS5 established in EXAMPLE 4(2), which are cells capable of stably and highly expressing ACS5, and SF268/mock cells for control, incubation was performed in RPMI-1640 medium for 48 hours. After adding 20 μl of CellTiter 96AQueous One Solution Cell Proliferation Assay Kit (manufactured by Promega) and reacting for an hour, the cell viability was determined by measuring absorbance at 490 nm and expressed by % based on the value when no etoposide was added or no 5-fluorouracil was added (FIG. 6A).

SF268/ACS5 cells [2] = assay: Caspase activation in ACS5-expressing SF268 cells; type: cell-based, human; conditions: with expression of ACS5; FIG. 4D
Experimental: (§1) In order to examine if the cell growth inhibitory effect by Triacsin c was induced by apoptosis, the caspase activation was measured as an index of the apoptosis induction using acetyl-Asp-Glu-Val-Asp-(4-methylcoumaryl-7-amide) as a substrate.
(§2) In addition, the caspase activation as an index of apoptosis was examined.

SF268 cells = assay: Cell growth inhibition in SF268 cells; type: cell-based, human; conditions: about 4 μM (1 to 4 μM), treated for 48 hours; FIG. 4C
Experimental: (§3) NCI-H23, DMS114, HCT-15, KM-12, SF268 and U251 cells, which are p53-mutated cancer cells, were incubated in RPMI-1640 medium containing 4 or 8 μM Triacsin c for 48 hours. On the other hand, human normal cell lines TIG108, TIG109, ASF4-1, CCD33Co and TIG114 cells were incubated in MEM containing 4 or 8 μM Triacsin c for 48 hours. After completion of the incubation, 20 μl of CellTiter 96AQueous One Solution Cell Proliferation Assay Kit (manufactured by Promega Corp.) was added and reacted for an hour. Absorbance was then measured at 490 nm.
as §2

[3] = tested on: human normal cell lines TIG108, TIG109, ASF4-1, CCD33Co and TIG114; assay: Cell growth inhibition, CellTiter 96 AQueous One, human normal cell lines; type: cell-based; conditions: 4 or 8 μM, 48 hours, MEM; FIG. 3A
Experimental: as §3
(§4) The results are shown by % based on absorbance in the absence of Triacsin c.

p53-mutated cancer cells = assay: Caspase activation as index of apoptosis induction (Ac-DEVD-MCA substrate); type: cell-based, human; conditions: 8 μM, 30 hours, RPMI medium; FIG. 3B
Experimental: as §1

[4] = tested on: p53-mutated cancer cells (NCI-H23, DMS114, HCT-15, KM-12, SF268, U251); assay: Cell growth inhibition, CellTiter 96 AQueous One, p53-mutated cancer cells; type: cell-based, human; conditions: 4 or 8 μM, 48 hours, RPMI-1640; FIG. 3A
Experimental: as §3, §4

SF268/ACS5 cells [5] = assay: Cell growth inhibition in ACS5-expressing SF268 cells; type: cell-based, human; conditions: FIG. 4C
Description: To examine if the p53-mutated cancer cell-selective apoptosis by Triacsin c was induced by ACS activity inhibition, cells stably expressing Triacsin c-resistant ACS isozyme ACS5 were established as follows. The retroviral vector pHa-ACS5—FLAG-IRES-DHFR constructed in EXAMPLE 4(1) and empty vector pHa-IRES-DHFR were introduced into mouse fibroblast PA317 using mammalian transfection kit (Stratagene) to give viral stock. The resulting viral stock was further infected into human glioma SF268 cells and selected with 100 ng/ml of methotrexate as a selective agent to give the stably expressing strain SF268/ACS5 and SF268/mock for control. The cell extract from each cell was analyzed by western blot using anti-FLAG-M2 antibody (Sigma) (and anti-tubulin antibody (Sigma) for control).
as §2

ACS = assay: Intracellular ACS activity in cell extract ([14C]-palmitic acid); type: cell-based, human; conditions: 4 μM, 24 hours, FIG. 4B
Experimental: The ACS activity was assayed by the method of Banis, et al. (Biochem. Biophys. Acta, 348, 210-220, 1974). To the cell extract (100 μl) obtained by homogenization, 1.2 μmol magnesium chloride, 5 μmol ATP, 3 μmol potassium fluoride, 0.1 μmol coenzyme A, 3 μmol 2-mercaptoethanol, 0.03 μmol palmitic acid and 0.1 μCi [^14C]-palmitic acid (150 μl) were added and the mixture was reacted at 37° C. for 5 minutes. After the reaction was terminated by adding 2.25 ml of isopropanol-heptane-1M sulfuric acid (40:10:1), 1.5 ml of heptane and 1 ml of water were added and the upper layer was removed. The lower layer containing [^14C]-palmitoyl CoA produced after the reaction was washed twice with 2 ml of heptane-8 mg of palmitic acid, and the ^14C level was measured using a liquid scintillation counter.
The ACS activities of SF268/mock cells and SF268/ACS5 cells were assayed by the method described in EXAMPLE 4(3).

[6] = tested on: Human lung cancer NCI-H23; assay: Growth inhibitory effect in nude mice bearing p53-mutated cancer; type: in vivo, BALB/cAJcl-nu nude mice
Experimental: In order to examine the p53-mutated cancer growth inhibitory effect by apoptosis induction via Triacsin c-induced ACS activity inhibition in vivo, a test for administering p53-mutated cancer-bearing nude mice was performed. Human lung cancer NCI-H23 was used as the p53-mutated cancer cell line and implanted subcutaneously into BALB/cAJcl-nu nude mice (9 weeks old). On day 0 when the tumor volume reached 50-150 mm^3, 40 μl (30 mg/kg/day) of Triacsin c was administered by intratumoral injection (n=5). Triacsin c was administered for 3 consecutive days on days 0, 1 and 2. For control group, 40 μl of saline was administered by the same dosing schedule (n=5). For evaluation of tumor volume, the length (L) and width (W) of the tumor were measured, and the tumor volume (TV) was calculated as TV=L×W×W/2. Relative tumor volume was determined as the value when a mean value of the tumor volume on day 0 in control group was made 1. Tumor growth was measured for 21 days after drug administration. Statistical significance was determined with a Student t test.

[7] = tested on: fatty acid metabolizing enzyme ACS; conditions: Biochem. Biophys. Acta, 921, 595-598, 1987; cited from earlier work

SMILES | cell viability in SF268/ACS5 as compared to SF268/mock [1] | growth inhibitory effect (cell viability) [1] | caspase activation (SF268/ACS5 cells [2]) | cell growth (SF268 cells) | cell growth inhibitory effect [3] | caspase activation (p53-mutated cancer cells) | cell growth inhibitory effect [4] | Triacsin c-induced cell growth inhibitory effect (SF268/ACS5 cells [5]) | intracellular ACS activity (ACS; SF268/ACS5 cells (ACS5-overexpressed)) | intracellular ACS activity (ACS; SF268/mock cells) | tumor volume versus control group ([6]; 30 mg/kg/day intratumoral injection, days 0, 1 and 2, measured for 21 days, p<0.05, FIG. 5) | weight loss ([6]; cancer-bearing nude mice, 30 mg/kg/day intratumoral, 3 consecutive days) | inhibition activity against ACS [7]
O=c1[nH]cc(F)c(=O)[nH]1 [5-fluorouracil] | significantly high cell viability | growth inhibitory effect was produced concentration-dependently | – | – | – | – | – | – | – | – | – | – | –
COc1cc([C@@H]2c3cc4c(cc3[C@@H](O[C@@H]3O[C@@H]5CO[C@@H](C)O[C@H]5[C@H](O)[C@H]3O)[C@H]3COC(=O)[C@H]23)OCO4)cc(OC)c1O [etoposide] | significantly high cell viability | growth inhibitory effect was produced concentration-dependently | – | – | – | – | – | – | – | – | – | – | –
CCCC=CCC=CC=CC=NN=NO [Triacsin c, 1-Hydroxy-3-undeca-2,4,7-triene-1-ylidenetriaz-1-ene] | – | – | strongly counteracted | strongly inhibited the growth | no cell growth inhibitory effect was observed | strong activation of caspase | potent cell growth inhibitory effect | almost completely cancelled | any significant reduction of the ACS activity was not observed | markedly reduced | significant tumor regression effect | any weight loss was not observed | specific inhibition activity
